Results taken from publication PMC6271143, “Novel Triphenylantimony(V) and Triphenylbismuth(V) Complexes with Benzoic Acid Derivatives: Structural Characterization, in Vitro Antileishmanial and Antibacterial Activities and Cytotoxicity against Macrophages” (Molecules, 2014).
Converted amounts (≈) assume the structure as drawn. Where two headings read alike, the source gives them in different places.

Tests used:
[1] = tested on: Staphyloccocus aureus (ATCC 6538); experiment: Minimum inhibitory concentration, broth dilution (NCCLS M7-A6), S. aureus; format: cell-based, Staphylococcus aureus; details: for MIC: ATCC 6538, 100% inhibition of growth, visual, 24 h at 37 °C; for d SI (selective index): ratio between MIC in murine macrophages and MIC in Staphylococcus aereus: as printed in footnote d
Method: (§1) Antimicrobial activity tests were performed in a quantitative way by determining the minimum inhibitory concentration (MIC) by the standard method for in vitro anti-bacterial susceptibility testing proposed by the National Committee for Clinical Laboratory Standards [NCCLS M7-A6] [56]. Sthaphyloccocus aureus [ATCC6538] and Pseudomonas aeruginosa [ATCC27853] stored in Müller–Hilton broth were sub-cultured for testing in the same medium and incubated for 24 h, respectively, at 37 °C. The bacterial cells of the two strains were suspended in Müller-Hilton broth to produce inocula of 10^8 CFU mL^–1, determined by a spectrophotometric method. Serial dilutions of the compounds, previously dissolved in DMSO, were prepared in 10 test tubes with Müller–Hilton broth to final concentrations from 100 μg mL^–1 to 0.20 μg mL^–1 for P. aeruginosa and S. aureus. An old inoculum of each strain was added to the tubes to obtain final concentrations of 10^5 CFU. […] Tests using tetracycline as positive control and DMSO as negative control were carried out in parallel. All tests were performed in triplicate with full agreement between the results.

[2] = tested on: L. amazonensis promastigotes; experiment: Antileishmanial activity assay (growth inhibition, absorbance at 600 nm) against L. amazonensis promastigotes; format: cell-based, Leishmania amazonensis (strain MHOM/BR/1989/BA199); details: for IC50: promastigotes, IC50/72 h (source says 48 h), non-linear regression, read-out: IC50 (μM) ± SEM, L. amazonensis strain
Method: (§2) The four complexes, their metal salts and their respective free ligands were primarily tested for their activity to investigate whether they inhibit the growth of L. amazonensis and L. infantum promastigotes. The growth rate of the promastigotes incubated for […] in the presence of test compounds was compared to those of nontreated negative control and to those treated with the standard antileishmanial antimony(III) drug tartar emetic.
(§3) Leishmania amazonensis (strain MHOM/BR/1989/BA199) and Leishmania infantum (strain MCAN/BR/2002/BH400) promastigotes were maintained in minimum essential culture medium (α-MEM) (Gibco, Invitrogen, Grand Island, NY, USA) supplemented with 10% (v/v) heat inactivated fetal calf serum (Cultilab, Campinas, SP, Brazil), […] kanamycin, […] ampicillin, 2 mM L-glutamine, […] hemin, 5 mM biopterin, (Sigma-Aldrich), pH 7.0 and incubated at 25 °C [52].
(§4) Complexes 1-4 were evaluated in vitro for their activity against two wild type Leishmania parasites. Log-phase L. amazonensis and L. infantum promastigotes (1 × 10^6 parasites/mL) were seeded in 24-wells cell culture plates with 1.5 mL of α-MEM, incubated under shaking at 25 °C during 72 h in the presence of several concentrations of complex 1–4, free ligands HL1-2, and metal precursors M1-2. Non-treated parasites in the presence of DMSO solution and absence of any test compound were established for growth comparison. Stock solutions of the ligands, 2-acetylsalicylic acid and 3-acetoxybenzoic acid, their metal complexes 1–4, and metal salts, Ph3SbCl2 and Ph3BiCO3 were dissolved in DMSO and diluted in α-MEM cell culture medium to obtain the range of tested concentrations. […] For drug susceptibility assay, Leishmania growth curves were constructed by measuring absorbance at 600 nm. The antileishmanial activity is expressed as IC50/72 h, which is the concentration that reduces cell growth by 50% compared to untreated control (relative growth). All experiments were done at least three times as independent experiments performed in triplicate.
(§5) The IC50 and CC50 values were calculated by nonlinear regression using the software GraphPad Prism 5.0. The acceptable level of significance was 95% (p < 0.05).

[3] = tested on: mouse peritoneal macrophages; experiment: Cytotoxicity (MTT assay) against mouse peritoneal macrophages; format: cell-based, mouse (Balb/c); details: 24 h, murine peritoneal macrophages, read-out: CC50: concentration that is cytotoxic against 50% of macrophages
Method: (§6) The in vitro cytotoxicity of the complexes, along their metal salts and ligands, was evaluated by means of the MTT assays towards mouse peritoneal macrophages. The results of in vitro cytotoxic activity are expressed as CC50, which is the concentration of compound that inhibits the viability of macrophages by 50% as compared to untreated macrophages control.
(§7) The concentration of studied compounds that is cytotoxic to 50% of the macrophages (CC50) was determined by the 3-(4,5-dimethylthiazol-2-yl)-2,5 diphenyltetrazolium bromide (MTT) method according to Mosmann. Briefly, peritoneal macrophages were obtained from Balb/c mice after intraperitoneal injection of 2 mL of 3% sodium thioglycolate medium. Mice were euthanized after 72 h, just before removal of peritoneal macrophages by washing with cold RPMI 1640 medium. The procedure was approved by the Internal Ethics Committee in Animal Experimentation (CEUA) of the Federal University of Uberlândia (Protocol 069/2013). After washing, the cell suspension (4.0 × 10^6/mL) was seeded (0.1 mL) in 96-well flat bottom plates. Macrophages were allowed to adhere for 2 h and non-adherent cells were removed by washing with RPMI. Then, the compounds were added to the wells at different concentrations and the cells were further cultured in RPMI-1640 supplemented with 10% FBS for 24 h at 37 °C in a humidified 5% CO2 atmosphere. Thereafter, the medium was replaced with fresh RPMI containing 0.5 mg/mL of MTT and the plates were incubated for additional 4 h. Supernatants were aspirated and the formazan crystals formed were dissolved in 100 μL of DMSO. After 15 min of incubation at room temperature, absorbance of solubilized MTT formazan product was spectrophotometrically measured at 570 nm.
as §5

[4] = tested on: Pseudomonas aeruginosa (ATCC 27853); experiment: Minimum inhibitory concentration, broth dilution (NCCLS M7-A6), P. aeruginosa; format: cell-based; details: visual, 24 h at 37 °C
Method: as §1

[5] = tested on: L. infantum promastigotes; experiment: Antileishmanial activity assay (growth inhibition, absorbance at 600 nm) against L. infantum promastigotes; format: cell-based, Leishmania infantum (strain MCAN/BR/2002/BH400); details: for IC50: promastigotes, IC50/72 h (source says 48 h), non-linear regression, read-out: IC50 (μM) ± SEM, L. infantum strain
Method: as §2, §3, §4, §5

[6] = tested on: Pseudomonas aeruginosa (ATCC 27853); experiment: Minimum inhibitory concentration, broth dilution (NCCLS M7-A6), P. aeruginosa; format: cell-based; details: as printed in footnote c
[7] = Antileishmanial activity assay (growth inhibition, absorbance at 600 nm) against L. amazonensis promastigotes; format: cell-based, Leishmania amazonensis (strain MHOM/BR/1989/BA199); details: Balb/c, mouse (macrophages); Leishmania amazonensis (promastigotes), pH 7; CC50 macrophages / IC50 L. amazonensis; read-out: b SI (selective index): ratio between CC50 in murine macrophages and IC50 in L. amazonensis (WT)
Method: as §2, §3, §4, §5

[8] = tested on: L. infantum promastigotes; experiment: Antileishmanial activity assay (growth inhibition, absorbance at 600 nm) against L. infantum promastigotes; format: cell-based, Leishmania infantum (strain MCAN/BR/2002/BH400); details: Leishmania infantum, IC50/72 h (source says 48 h), non-linear regression, read-out: IC50 (μM) ± SEM, L. infantum strain
[9] = Cytotoxicity (MTT assay) against mouse peritoneal macrophages; format: cell-based, mouse (Balb/c); details: Balb/c, mouse, mouse peritoneal macrophages, murine peritoneal macrophages, read-out: CC50: concentration that is cytotoxic against 50% of macrophages
Method: as §6, §7, §5

[10] = Antileishmanial activity assay (growth inhibition, absorbance at 600 nm) against L. infantum promastigotes; format: cell-based, Leishmania infantum (strain MCAN/BR/2002/BH400); details: Balb/c, mouse (macrophages); Leishmania infantum (promastigotes), pH 7; CC50 macrophages / IC50 L. infantum; read-out: a SI (selective index): ratio between CC50 in murine macrophages and IC50 in L. infantum
Method: as §2, §3, §4, §5

[11] = tested on: L. amazonensis promastigotes; design: method as in PMID 23099618; details: read-out: IC50 (μM) ± SEM, L. amazonensis strain; cited from earlier work
[12] = tested on: Pseudomonas aeruginosa (ATCC 27853); design: method as in doi:10.1016/j.molstruc.2010.11.048; details: cited from earlier work
Leishmania promastigotes = tested on: Leishmania promastigotes; design: method as in PMID 19633606; details: cited from earlier work
[13] = Staphylococcus aureus, ATCC6538
[14] = Pseudomonas aeruginosa, ATCC27853, 100% inhibition of growth

Row | Compound | MIC [1] [µM] | b SI (selective index): ratio between CC50 in murine macrophages and IC50 in L. amazonensis (WT) [2] | IC50 [2] [µM] | CC50 [3] [µM] | MIC ([4]; 100% inhibition of growth) [µM] | a SI (selective index): ratio between CC50 in murine macrophages and IC50 in L. infantum [5] | IC50 [5] [µM] | further results
1 | CC(=O)Oc1ccccc1C(=O)[O][Sb]([O]C(=O)c1ccccc1OC(C)=O)([c]1ccccc1)([c]1ccccc1)[c]1ccccc1 [Complex 1, Bis-(acetylsalicylato)triphenylantimony(V)] | 140.6 | 2.0 | 30.7 ± 3.43 | 60.5 ± 3.4 | 140.6 | 4.51 | 13.3 ± 0.74 | –
2 | CC(=O)Oc1ccccc1C(=O)[O][Bi]([O]C(=O)c1ccccc1OC(C)=O)([c]1ccccc1)([c]1ccccc1)[c]1ccccc1 [Complex 3, Bis-(acetylsalicylato)triphenylbismuth(V)] | 4.1 | 0.75 | 8.5 ± 0.56 | 6.4 ± 0.5 | 8.2 | 0.74 | 8.6 ± 1.36 | –
3 | CC(=O)Oc1cccc(C(=O)[O][Bi]([O]C(=O)c2cccc(OC(C)=O)c2)([c]2ccccc2)([c]2ccccc2)[c]2ccccc2)c1 [Complex 4, Bis-(3-acetoxybenzoato)triphenylbismuth(V)] | 4.1 | <1 | 2.9 ± 0.17 | 2 ± 0.1 | 16.5 | <1 | 4 ± 0.39 | –
4 | [Cl][Sb]([Cl])([c]1ccccc1)([c]1ccccc1)[c]1ccccc1 [Complex M1, triphenylantimony(V) dichloride] | 235.8 | 2.4 | 9.3 ± 0.26 | 22.7 ± 0.93 | 235.8 | 1.7 | 13.2 ± 2.03 | –
5 | O=C([O-])[O-].c1cc[c]([Bi+2]([c]2ccccc2)[c]2ccccc2)cc1 [Complex M2, triphenylbismuth carbonate] | 24.5 | 4.6 | 2.7 ± 0.34 | 12.1 ± 0.45 | 48.9 | 10.6 | 1.1 ± 0.37 | –
6 | CC(=O)Oc1ccccc1C(=O)O [HL1, acetylsalicylic acid] | – | – | – | – | – | – | – | MIC [1, 13]: > 555 µM; d SI (selective index): ratio between MIC in murine macrophages and MIC in Staphylococcus aereus [1]: <1; c SI (selective index): ratio between CC50 in murine macrophages and MIC in Pseudomonas aureginosa [6]: <1; selectivity ratio at 72 h [7]: < 1; IC50 [8]: 8990 µM; CC50 at 24 h [9]: 580.1 ± 1.07 µM; MIC [4, 14]: > 555 µM; selectivity ratio at 72 h [10]: < 1
7 | CC(=O)Oc1cccc(C(=O)O)c1 [HL2, 3-acetoxybenzoic acid] | – | – | – | – | – | – | – | MIC [1, 13]: > 555 µM; d SI (selective index): ratio between MIC in murine macrophages and MIC in Staphylococcus aereus [1]: <1; c SI (selective index): ratio between CC50 in murine macrophages and MIC in Pseudomonas aureginosa [6]: <1; selectivity ratio at 72 h [7]: < 1; CC50 at 24 h [9]: 2768 ± 9 µM; MIC [4, 14]: > 555 µM; selectivity ratio at 72 h [10]: < 1
8 | O=C([O-])[C@H]([O-])[C@@H]([O-])C(=O)[O-].O=C([O-])[C@H]([O-])[C@@H]([O-])C(=O)[O-].[K+].[K+].[Sb+3].[Sb+3] [TA, potassium antimony tartrate] | – | – | – | – | – | – | 100 ± 3 | IC50 [11]: 83 ± 1 µM
9 | CN(C)[C@@H]1C(O)=C(C(N)=O)C(=O)[C@@]2(O)C(O)=C3C(=O)c4c(O)cccc4[C@@](C)(O)[C@H]3C[C@@H]12 [Tetracycline, tetracycline] | – | – | – | – | – | – | – | MIC, P. aeruginosa [12]: >96.7 [48] μM; MIC [1, 13]: 3.5 µM (≈ 1.56 µg/mL)
10 | Bis-(3-acetoxybenzoato)triphenylantimony(V) [Complex 2] | 140.6 | 3.40 | 8.9 ± 0.36 | 30 ± 2.3 | 140.6 | 2.45 | 12.2 ± 0.91 | –
11 | meglumine antimoniate | – | – | – | – | – | – | – | activity in the promastigotes model (Leishmania promastigotes): inactive
